How the values were obtained:
[1] = biological target: Cbl-b (36-427 aa truncated form, N-terminus Avi-tag) (Homo sapiens (Human), UniProt Q13191); assay: Cbl-b binding: TR-FRET displacement of BODIPY-FL probe
Summary of the method: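 Avi-tagged Cbl-b 36-427 preincubated 1 h at RT with streptavidin-terbium in HEPES pH 7.5/NaCl/Triton/BSA/TCEP buffer, then 1 uM BODIPY-FL inhibitor probe plus compound added for 1 h. Probe displacement read by TR-FRET; IC50 fitted.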

[2] = system: Human primary T cells; assay: T cell activation: CD69 surface expression by flow cytometry; format: cell-based; conditions: fold over anti-CD3 stimulated background normalized to Compound 141A; for CD69 10 nM: 10 nM compound; for CD69 100 nM: 100 nM compound
Summary of the method: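 Negatively selected human primary T cells (1×10^5/well, XVivo-15) were captured on plates coated with 10 μg/mL anti-CD3 (OKT3). They were exposed to serially diluted compounds in duplicate for 48 h at 37° C. CD69 was read by flow cytometry as fold over anti-CD3-only background, normalized to Compound 141A and binned into ranges.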

[3] = system: Human primary T cells; assay: T cell activation: secreted IFN-y; format: cell-based; conditions: 48 hours, fold over background normalized to Compound 141A; for IFN-y 1 nM: 1 nM compound; for IFN-y 10 nM: 10 nM compound; for IFN-y 100 nM: 100 nM compound
Summary of the method: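 Negatively selected primary human T cells (1×10^5/well, serum-free XVivo-15) on plates coated with 10 μg/mL anti-CD3 were exposed to serial compound dilutions for 48 h at 37 °C. Secreted IFN-γ was measured by cytometric bead array and expressed as fold over anti-CD3/CD28 background, normalized to a reference compound and binned into ranges A–D.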

[4] = system: Human primary T cells; assay: T cell activation: secreted IL-2; format: cell-based; conditions: 48 hours, fold over background normalized to Compound 141A; for IL-2 1 nM: 1 nM compound; for IL-2 10 nM: 10 nM compound; for IL-2 100 nM: 100 nM compound
Summary of the method: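 Negatively selected human primary T cells on plate-bound anti-CD3 (OKT3) in serum-free medium, treated 48 h at 37° C. with serial compound dilutions in duplicate. Secreted IL-2 by bead-based cytometric assay, expressed as fold over anti-CD3/CD28 background normalized to a reference compound, then binned into ranges.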

Chain of Cbl-b (36-427 aa truncated form, N-terminus Avi-tag) (Q13191 36-427): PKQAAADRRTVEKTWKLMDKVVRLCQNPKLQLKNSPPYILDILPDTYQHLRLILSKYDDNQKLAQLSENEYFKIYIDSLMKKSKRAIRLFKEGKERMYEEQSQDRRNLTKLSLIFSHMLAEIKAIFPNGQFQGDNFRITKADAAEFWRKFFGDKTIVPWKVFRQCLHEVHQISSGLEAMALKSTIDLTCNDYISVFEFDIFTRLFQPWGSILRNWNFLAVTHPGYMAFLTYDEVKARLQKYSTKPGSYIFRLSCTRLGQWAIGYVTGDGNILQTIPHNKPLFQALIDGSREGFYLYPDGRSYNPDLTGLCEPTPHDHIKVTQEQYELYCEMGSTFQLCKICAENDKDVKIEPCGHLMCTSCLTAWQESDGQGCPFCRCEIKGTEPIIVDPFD

IC50 [1] [nM]	SMILES	CD69 10 nM [2]	CD69 100 nM [2]	IFN-y 1 nM [3]	IFN-y 10 nM [3]	IFN-y 100 nM [3]	IL-2 1 nM [4]	IL-2 10 nM [4]	IL-2 100 nM [4]
5.01 to 20	C[C@H]1CCCN(Cc2cc3c(c(C(F)(F)F)c2)CN(c2cc(C4(Cc5nncn5C)COC4)cc(N4CCN(C(=O)CCCN=[N+]=[N-])CC4)n2)C3=O)C1 [Compound 136, (S)-2-(6-(4-(4-azidobutanoyl)piperazin-1-yl)-4-(3-((4-methyl-4H-1,2,4-triazol-3-yl)methyl)oxetan-3-yl)pyridin-2-yl)-6-((3-methylpiperidin-1-yl)methyl)-4-(trifluoromethyl)isoindolin-1-one]	B (values between 0.61 and 0.80: range “B;”)	A (values between 0.81 and 1.10: range “A”)	C (values between 0.10 and 0.30: range “C”)	B (values between 0.31 and 1.00: range “B;”)	B (values between 0.31 and 1.00: range “B;”)	C (values between 0.10 and 0.30: range “C”)	B (values between 0.31 and 0.79: range “B”)	B (values between 0.31 and 0.79: range “B”)
5.01 to 20	CC#CC(=O)N1CCN(c2cc(C3(Cc4nncn4C)COC3)cc(N3Cc4c(cc(CN5CCC[C@H](C)C5)cc4C(F)(F)F)C3=O)n2)CC1 [Compound 137]	B (values between 0.61 and 0.80: range “B;”)	A (values between 0.81 and 1.10: range “A”)	B (values between 0.31 and 1.00: range “B;”)	B (values between 0.31 and 1.00: range “B;”)	B (values between 0.31 and 1.00: range “B;”)	C (values between 0.10 and 0.30: range “C”)	B (values between 0.31 and 0.79: range “B”)	B (values between 0.31 and 0.79: range “B”)
5.01 to 20	CCNc1cc(C2(Cc3nncn3C)COC2)cc(N2Cc3c(cc([C@H](CSC)N4CCC[C@H](C)C4)cc3C(F)(F)F)C2=O)n1 [Compound 141A, 2-[6-(ethylamino)-4-{3-[(4-methyl-1,2,4-triazol-3-yl)methyl]oxetan-3-yl}pyridin-2-yl]-6-[(1R)-1-[(3S)-3-methylpiperidin-1-yl]-2-(methylsulfanyl)ethyl]-4-(trifluoromethyl)-3H-isoindol-1-one]	A (values between 0.81 and 1.10: range “A”)	A (values between 0.81 and 1.10: range “A”)	B (values between 0.31 and 1.00: range “B;”)	B (values between 0.31 and 1.00: range “B;”)	A (fold over background between 1.10 and 2.00: range “A”)	B (values between 0.31 and 0.79: range “B”)	B (values between 0.31 and 0.79: range “B”)	A (between 0.80 and 1.40: range “A”)
5.01 to 20	CCNc1cc(C2(Cc3nncn3C)COC2)cc(N2Cc3c(cc([C@@H](CSC)N4CCC[C@H](C)C4)cc3C(F)(F)F)C2=O)n1 [Compound 141B, 2-[6-(ethylamino)-4-{3-[(4-methyl-1,2,4-triazol-3-yl)methyl]oxetan-3-yl}pyridin-2-yl]-6-[(1s)-1-[(3S)-3-methylpiperidin-1-yl]-2-(methylsulfanyl)ethyl]-4-(trifluoromethyl)-3H-isoindol-1-one]	A (values between 0.81 and 1.10: range “A”)	A (values between 0.81 and 1.10: range “A”)	C (values between 0.10 and 0.30: range “C”)	B (values between 0.31 and 1.00: range “B;”)	B (values between 0.31 and 1.00: range “B;”)	B (values between 0.31 and 0.79: range “B”)	B (values between 0.31 and 0.79: range “B”)	B (values between 0.31 and 0.79: range “B”)

From patent US20250304563A1, “ACTIVATORS OF EFFECTOR T CELLS” (Orum Therapeutics, Inc., priority 2022, published 2025)
